The record followed here is patent US9938261B2, “Heterocyclic compounds and methods of use thereof” (AMBIT BIOSCIENCES CORPORATION, priority 2011, dated 2018).

The target in one experiment is T1, KIT (Homo sapiens, UniProt P10721).
T1 construct: made in house
Nature of the experiment: Competition binding assay, KIT Kd. Summed up: (§1)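 Phage-fused or HEK-293/DNA-tagged kinase + ligand-coated streptavidin beads + compound, 1 h RT with shaking. Wash, elute with free ligand 30 min RT, qPCR of eluted kinase. Kd: 11-point 3-fold series.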

A further experiment concerns the target T2, PDGFRβ (Homo sapiens, UniProt P09619).
T2 construct: made in house
Nature of the experiment: Competition binding assay, PDGFRβ Kd. A digest of the protocol: as §1

In a further experiment the test system is M-NFS-60 cells. Briefly: M-NFS-60 cell proliferation assay (Alamar Blue). The format is cell-based, mouse. As to conditions: Mus musculus; 72 hours incubation, M-CSF 20 ng/mL; read-out: CSF1R M-NFS-60 CTB:IC50. A digest of the protocol:
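Mouse M-NFS-60 cells growing on 20 ng/mL M-CSF in RPMI/10% FBS were exposed to compounds (9 half-log concentrations, 0.5% DMSO) for 72 h at 37 °C. Viability read by Alamar Blue fluorescence (ex 560/em 590 nm, 3 h). IC50 = 50% proliferation inhibition versus control, mean of duplicates.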

Experiment [1] deals with kinase panel containing either 386 or 392 distinct kinases. Briefly: Kinase selectivity score S10 from competition binding panel. As to conditions: compounds at 10 μM; 386 or 392 distinct kinases. How it is done:
Competition binding assays used herein were developed, validated and performed as described in Fabian et al., Nature Biotechnology 2005, 23, 329-336. Kinases were produced as fusions to T7 phage (See, Fabian et al. or WO04/015142) or alternatively, the kinases were expressed in HEK-293 cells and subsequently tagged with DNA for PCR detection (See, WO08/005310). For the binding assays, streptavidin-coated magnetic beads were treated with biotinylated affinity ligands for 30 min at room temperature to generate affinity resins. The liganded beads were blocked with excess biotin and washed with blocking buffer (SeaBlock (Pierce), 1% BSA, 0.05% Tween 20, 1 mM DTT) to remove unbound ligand and to reduce non-specific binding. Binding reactions were assembled by combining kinase, liganded affinity beads, and test compounds in 1× binding buffer (20% SeaBlock, 0.17×PBS, 0.05% Tween 20, 6 mM DTT). Test compounds were prepared as 100× stocks in DMSO and diluted into the aqueous environment. Kds were determined using an eleven point threefold serial dilutions. DMSO or control compounds were was added to control assays lacking a test compound. Primary screen assays were performed in polypropylene 384-well plates in a final volume of 20-40 μL, while Kd determinations were performed in polystyrene 96-well plates in a final volume of 135 μL. The assay plates were incubated at room temperature with shaking for 1 hour to allow the binding reactions to reach equilibrium, and the affinity beads were washed extensively with wash buffer (1×PBS, 0.05% Tween 20) to remove unbound protein. The beads were then resuspended in elution buffer (1×PBS, 0.05% Tween […] non-biotinylated affinity ligand) and incubated at room temperature with shaking for 30 min. The kinase concentration in the eluates was measured by quantitative PCR.
A selectivity score (S10) is a quantitative measure of selectivity of a compound against a panel of kinases. An S10 was calculated for a compound by dividing the number of kinases found to have a percent of control (DMSO) less than 10 by the total number of distinct kinases tested (excluding mutant variants). Percent of control (POC) is calculated by subtracting the signal of the control compound (POC=0) from the signal of the test compound and dividing the outcome by the signal of DMSO (POC=100) minus the signal of the control compound. For the compounds disclosed herein, S10 scores were obtained by testing the compounds at 10 μM concentration in a kinase panel containing either 386 or 392 distinct kinases.

A further experiment has as its target CSF1R (Homo sapiens, UniProt P07333). Nature of the experiment: Competition binding assay, CSF1R Kd. Also noted: made in house. Summed up: as §1

T1 sequence (P10721 26-976): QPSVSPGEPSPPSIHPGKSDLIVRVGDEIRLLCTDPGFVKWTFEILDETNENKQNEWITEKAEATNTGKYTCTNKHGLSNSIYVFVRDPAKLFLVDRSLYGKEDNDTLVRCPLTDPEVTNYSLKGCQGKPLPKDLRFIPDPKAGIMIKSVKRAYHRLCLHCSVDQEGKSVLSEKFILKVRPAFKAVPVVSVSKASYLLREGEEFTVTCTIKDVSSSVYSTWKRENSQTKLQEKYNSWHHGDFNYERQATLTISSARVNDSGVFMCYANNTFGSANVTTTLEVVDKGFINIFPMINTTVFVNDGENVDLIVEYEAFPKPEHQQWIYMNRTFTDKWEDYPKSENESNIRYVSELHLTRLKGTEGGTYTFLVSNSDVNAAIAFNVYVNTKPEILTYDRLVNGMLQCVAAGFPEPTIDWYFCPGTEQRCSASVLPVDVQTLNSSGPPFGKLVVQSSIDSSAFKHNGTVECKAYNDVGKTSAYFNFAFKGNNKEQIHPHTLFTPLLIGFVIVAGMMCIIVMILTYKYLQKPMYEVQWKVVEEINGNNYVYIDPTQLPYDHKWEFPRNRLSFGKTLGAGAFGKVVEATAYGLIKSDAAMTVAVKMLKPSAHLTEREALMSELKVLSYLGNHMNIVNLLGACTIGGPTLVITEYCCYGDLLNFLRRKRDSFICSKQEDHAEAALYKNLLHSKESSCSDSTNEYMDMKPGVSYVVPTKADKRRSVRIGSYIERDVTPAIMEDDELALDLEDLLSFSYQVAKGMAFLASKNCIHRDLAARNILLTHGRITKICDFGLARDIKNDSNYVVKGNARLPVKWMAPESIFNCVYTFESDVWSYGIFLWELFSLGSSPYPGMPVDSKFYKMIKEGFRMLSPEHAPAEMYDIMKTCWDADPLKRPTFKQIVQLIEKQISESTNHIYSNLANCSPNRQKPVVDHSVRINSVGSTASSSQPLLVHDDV
T2 sequence (P09619 33-1106): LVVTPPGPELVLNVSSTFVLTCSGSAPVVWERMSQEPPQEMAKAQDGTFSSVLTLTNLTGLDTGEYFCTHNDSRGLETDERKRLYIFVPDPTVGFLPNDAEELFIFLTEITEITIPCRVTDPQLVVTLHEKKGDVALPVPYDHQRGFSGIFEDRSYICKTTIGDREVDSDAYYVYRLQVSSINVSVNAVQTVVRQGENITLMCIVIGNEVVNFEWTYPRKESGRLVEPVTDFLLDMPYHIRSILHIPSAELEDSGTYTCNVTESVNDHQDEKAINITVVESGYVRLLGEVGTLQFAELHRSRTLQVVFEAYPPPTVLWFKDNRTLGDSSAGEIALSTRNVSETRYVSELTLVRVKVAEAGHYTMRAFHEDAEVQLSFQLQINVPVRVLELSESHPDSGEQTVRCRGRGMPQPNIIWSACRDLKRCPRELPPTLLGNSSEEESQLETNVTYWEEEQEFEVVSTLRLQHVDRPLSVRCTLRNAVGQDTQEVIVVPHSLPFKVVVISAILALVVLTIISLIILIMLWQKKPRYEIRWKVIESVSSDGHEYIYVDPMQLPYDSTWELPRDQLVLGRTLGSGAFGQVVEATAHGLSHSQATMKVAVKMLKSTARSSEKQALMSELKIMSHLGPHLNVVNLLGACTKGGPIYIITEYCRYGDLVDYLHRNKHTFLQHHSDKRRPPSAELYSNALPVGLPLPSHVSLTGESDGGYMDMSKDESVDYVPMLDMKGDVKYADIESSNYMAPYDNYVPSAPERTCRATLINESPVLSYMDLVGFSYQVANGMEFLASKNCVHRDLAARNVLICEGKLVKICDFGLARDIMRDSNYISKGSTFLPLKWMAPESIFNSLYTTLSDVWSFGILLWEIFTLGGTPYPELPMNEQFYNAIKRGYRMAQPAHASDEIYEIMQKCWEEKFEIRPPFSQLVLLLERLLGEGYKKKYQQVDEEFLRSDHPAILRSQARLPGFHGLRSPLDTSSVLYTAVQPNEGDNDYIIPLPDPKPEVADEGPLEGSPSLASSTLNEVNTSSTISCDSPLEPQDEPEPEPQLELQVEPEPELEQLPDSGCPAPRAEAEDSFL
Sequence of CSF1R (P07333 20-972): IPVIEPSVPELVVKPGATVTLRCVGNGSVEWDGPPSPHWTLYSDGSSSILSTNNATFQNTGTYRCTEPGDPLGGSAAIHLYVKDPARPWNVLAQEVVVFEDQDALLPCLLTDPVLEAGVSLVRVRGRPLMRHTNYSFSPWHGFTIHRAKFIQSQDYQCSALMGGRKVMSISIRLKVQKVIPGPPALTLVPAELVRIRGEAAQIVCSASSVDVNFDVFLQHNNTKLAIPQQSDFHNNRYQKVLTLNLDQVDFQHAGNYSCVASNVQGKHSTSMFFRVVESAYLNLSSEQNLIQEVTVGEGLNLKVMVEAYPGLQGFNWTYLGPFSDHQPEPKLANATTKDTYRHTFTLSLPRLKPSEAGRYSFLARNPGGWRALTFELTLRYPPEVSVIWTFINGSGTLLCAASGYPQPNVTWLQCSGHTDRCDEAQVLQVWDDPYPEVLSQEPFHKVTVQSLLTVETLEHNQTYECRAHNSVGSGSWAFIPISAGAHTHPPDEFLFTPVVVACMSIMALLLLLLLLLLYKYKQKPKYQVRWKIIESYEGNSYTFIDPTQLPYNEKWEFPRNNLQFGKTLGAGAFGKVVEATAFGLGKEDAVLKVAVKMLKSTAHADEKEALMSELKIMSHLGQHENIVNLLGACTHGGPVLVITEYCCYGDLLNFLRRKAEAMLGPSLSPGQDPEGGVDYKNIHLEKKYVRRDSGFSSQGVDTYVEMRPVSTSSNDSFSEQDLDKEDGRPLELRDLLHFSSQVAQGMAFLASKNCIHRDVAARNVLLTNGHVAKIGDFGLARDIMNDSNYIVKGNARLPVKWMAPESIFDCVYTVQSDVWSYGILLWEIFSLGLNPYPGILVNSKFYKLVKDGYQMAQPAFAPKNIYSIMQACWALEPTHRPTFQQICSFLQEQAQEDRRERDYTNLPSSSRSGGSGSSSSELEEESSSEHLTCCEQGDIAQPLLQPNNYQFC

By Kd is commonly meant a measure of binding affinity in units of concentration. Read a high Kd as lower affinity. What is called IC50 is the midpoint of a concentration-inhibition curve. In the case of `COc1cc2c(cc1C#N)ncn2Cc1ccc2nc(N[C@@H]3CCCC[C@H]3O)sc2c1` [Example 65, 1-((2-(((1R,2R)-2-hydroxycyclohexyl)amino)benzo[d]thiazol-6-yl)methyl)-6-methoxy-1H-benzo[d]imidazole-5-carbonitrile], the Kd at KIT was 0.5 to 2 µM; on PDGFRβ it was above 2 µM; at CSF1R it was 0.005 to 0.02 µM. In addition, the IC50 in the experiment with M-NFS-60 cells was in the range of 0.05 to 0.4 µM. For the same compound, the “Kinase specificity S(10)” value in experiment [1] was “B (0.01<B≤0.02)”.
As for `OC[C@@H]1CCCC[C@H]1Nc1nc2ccc(Cn3cnc4cccnc43)cc2s1` [Example 66, ((1R,2R)-2-((6-((3H-imidazo[4,5-b]pyridin-3-yl)methyl)benzo[d]thiazol-2-yl)amino)cyclohexyl)methanol], the Kd on KIT was 0.5 to 2 µM; at PDGFRβ, 0.05 to 0.5 µM; at CSF1R, 0.005 to 0.02 µM. The IC50 with M-NFS-60 cells fell in the range of 0.4 to 1.5 µM. Moreover, the “Kinase specificity S(10)” value in experiment [1] is listed as “A (A≤0.01)”.
As to `CC(=O)c1cnc2c(c1)ncn2Cc1ccc2nc(N[C@@H]3CCCC[C@H]3O)sc2c1` [Example 73, 1-(3-((2-(((1R,2R)-2-hydroxycyclohexyl)amino)benzo[d]thiazol-6-yl)methyl)-3H-imidazo[4,5-b]pyridin-6-yl)ethanone], the Kd on KIT is 0.1 to 0.5 µM; on PDGFRβ, at most 0.05 µM; at CSF1R, 0.005 to 0.02 µM. Besides, the IC50 with M-NFS-60 cells was in the range of 0.05 to 0.4 µM. In addition, the “Kinase specificity S(10)” value in experiment [1] is “A (A≤0.01)”.
On to `CS(=O)(=O)c1cnc2c(c1)ncn2Cc1ccc2nc(N[C@@H]3CCCC[C@H]3O)sc2c1` [Example 74, (1R,2R)-2-((6-((6-(methylsulfonyl)-3H-imidazo[4,5-b]pyridin-3-yl)methyl)benzo[d]thiazol-2-yl)amino)cyclohexanol], for which the figures for the Kd on KIT, on PDGFRβ and on CSF1R were 0.1 to 0.5 µM, 0.05 to 0.5 µM and 0.005 to 0.02 µM, respectively. For the same compound, in the experiment with M-NFS-60 cells, the IC50 is 0.05 to 0.4 µM. Further, the “Kinase specificity S(10)” value in experiment [1] is recorded as “B (0.01<B≤0.02)”.
Take `OC1(CNc2nc3ccc(Cn4cnc5cccnc54)cc3s2)CCCCC1` [Example 75, 1-(((6-((3H-imidazo[4,5-b]pyridin-3-yl)methyl)benzo[d]thiazol-2-yl)amino)methyl)cyclohexanol]: the Kd was at most 0.1 µM at KIT, at most 0.05 µM on PDGFRβ and 0.005 to 0.02 µM at CSF1R. The IC50 in the experiment with M-NFS-60 cells was 0.05 to 0.4 µM. Also, the “Kinase specificity S(10)” value in experiment [1] is reported as “C (C>0.02)”.
Turning to `OCC1(CNc2nc3ccc(Cn4cnc5cccnc54)cc3s2)CCCCC1` [Example 76, (1-(((6-((3H-imidazo[4,5-b]pyridin-3-yl)methyl)benzo[d]thiazol-2-yl)amino)methyl)cyclohexyl)methanol], the Kd was at most 0.1 µM on KIT, at most 0.05 µM at PDGFRβ and at most 0.005 µM at CSF1R. The IC50 with M-NFS-60 cells lay within 0.05 to 0.4 µM. Besides, in experiment [1], the “Kinase specificity S(10)” value was “C (C>0.02)”.
With `Cn1cc(-c2cn(Cc3ccc4nc(N[C@@H]5CCCC[C@H]5O)oc4c3)cn2)cn1` [Example 77, (1R,2R)-2-((6-((4-(1-methyl-1H-pyrazol-4-yl)-1H-imidazol-1-yl)methyl)benzo[d]oxazol-2-yl)amino)cyclohexanol], the figures for the Kd at KIT, on PDGFRβ and at CSF1R were 0.5 to 2 µM, 0.5 to 2 µM and 0.005 to 0.02 µM, respectively. Besides, the IC50 in the experiment with M-NFS-60 cells was 0.4 to 1.5 µM. Further, in experiment [1], the “Kinase specificity S(10)” value is “A (A≤0.01)”.
`O[C@@H]1Cc2ccccc2[C@H]1Nc1nc2ccc(Cn3cnc4ccc(Br)nc43)cc2s1` [Example 80, (1R,2R)-1-((6-((5-bromo-3H-imidazo[4,5-b]pyridin-3-yl)methyl)benzo[d]thiazol-2-yl)amino)-2,3-dihydro-1H-inden-2-ol]: the Kd is at most 0.1 µM on KIT, at most 0.05 µM at PDGFRβ and 0.005 to 0.02 µM on CSF1R. Besides, in the experiment with M-NFS-60 cells, the IC50 is at most 0.05 µM. Further, in experiment [1], the “Kinase specificity S(10)” value is on record as “B (0.01<B≤0.02)”.
`O=C(O)c1cnc2c(c1)ncn2Cc1ccc2nc(N[C@@H]3CCCC[C@H]3O)sc2c1` [Example 81, 3-((2-(((1R,2R)-2-hydroxycyclohexyl)amino)benzo[d]thiazol-6-yl)methyl)-3H-imidazo[4,5-b]pyridine-6-carboxylic acid]: the values for the Kd on KIT, on PDGFRβ and at CSF1R were 0.1 to 0.5 µM, 0.05 to 0.5 µM and 0.02 to 0.05 µM, respectively. Further, the IC50 with M-NFS-60 cells was above 1.5 µM. Besides, in experiment [1], the “Kinase specificity S(10)” value is on record as “B (0.01<B≤0.02)”.
Taken in the same sequence, the figures for `O[C@@H]1CCCC[C@H]1Nc1nc2ccc(Cn3cnc4cc(CN5CCOCC5)cnc43)cc2s1` [Example 82, (1R,2R)-2-((6-((6-(morpholinomethyl)-3H-imidazo[4,5-b]pyridin-3-yl)methyl)benzo[d]thiazol-2-yl)amino)cyclohexanol] were 0.5 to 2 µM, 0.05 to 0.5 µM, 0.005 to 0.02 µM, 0.4 to 1.5 µM and “A (A≤0.01)”.
Turning to `OCc1cnc2c(c1)ncn2Cc1ccc2nc(N[C@@H]3CCCC[C@H]3O)sc2c1` [Example 84, (1R,2R)-2-((6-((6-(hydroxymethyl)-3H-imidazo[4,5-b]pyridin-3-yl)methyl)benzo[d]thiazol-2-yl)amino)cyclohexanol], the values for the Kd at KIT, at PDGFRβ and on CSF1R were 0.1 to 0.5 µM, 0.05 to 0.5 µM and 0.005 to 0.02 µM, respectively. Further, the IC50 in the experiment with M-NFS-60 cells is 0.05 to 0.4 µM. For the same compound, the “Kinase specificity S(10)” value in experiment [1] was “A (A≤0.01)”.
As for `CSc1cnc2c(c1)ncn2Cc1ccc2nc(N[C@@H]3CCCC[C@H]3O)sc2c1` [Example 85, (1R,2R)-2-((6-((6-(methylthio)-3H-imidazo[4,5-b]pyridin-3-yl)methyl)benzo[d]thiazol-2-yl)amino)cyclohexanol], the results for the Kd on KIT, at PDGFRβ and at CSF1R were at most 0.1 µM, at most 0.05 µM and at most 0.005 µM, respectively. Besides, the IC50 with M-NFS-60 cells is at most 0.05 µM. For the same compound, in experiment [1], the “Kinase specificity S(10)” value is on record as “B (0.01<B≤0.02)”.
Turning to `CSCc1cnc2c(c1)ncn2Cc1ccc2nc(N[C@@H]3CCCC[C@H]3O)sc2c1` [Example 86, (1R,2R)-2-((6-((6-((methylthio)methyl)-3H-imidazo[4,5-b]pyridin-3-yl)methyl)benzo[d]thiazol-2-yl)amino)cyclohexanol], the results for the Kd on KIT, on PDGFRβ and at CSF1R were at most 0.1 µM, at most 0.05 µM and 0.005 to 0.02 µM, respectively. For the same compound, the half-inhibitory concentration (IC50) in the experiment with M-NFS-60 cells fell in the range of 0.05 to 0.4 µM. Also, the “Kinase specificity S(10)” value in experiment [1] is “C (C>0.02)”.
As for `N#Cc1ccc2ncn(Cc3ccc4nc(N[C@@H]5CCCC[C@H]5O)sc4c3)c2n1` [Example 87, 3-((2-(((1R,2R)-2-hydroxycyclohexyl)amino)benzo[d]thiazol-6-yl)methyl)-3H-imidazo[4,5-b]pyridine-5-carbonitrile], the Kd at KIT is at most 0.1 µM; at PDGFRβ it was at most 0.05 µM; at CSF1R, at most 0.005 µM. In addition, in the experiment with M-NFS-60 cells, the IC50 was at most 0.05 µM. Moreover, the “Kinase specificity S(10)” value in experiment [1] is recorded as “B (0.01<B≤0.02)”.
As to `C#Cc1cnc2c(c1)ncn2Cc1ccc2nc(N[C@@H]3CCCC[C@H]3O)sc2c1` [Example 96, (1R,2R)-2-((6-((6-ethynyl-3H-imidazo[4,5-b]pyridin-3-yl)methyl)benzo[d]thiazol-2-yl)amino)cyclohexanol], the Kd was at most 0.1 µM on KIT, at most 0.05 µM on PDGFRβ and 0.005 to 0.02 µM on CSF1R. Moreover, in the experiment on M-NFS-60 cells, the IC50 was at most 0.05 µM. Besides, the “Kinase specificity S(10)” value in experiment [1] is given as “C (C>0.02)”.
In the case of `O[C@@H]1CCCC[C@H]1Nc1nc2ccc(Cn3cnc4cc(N5CCOCC5)cnc43)cc2s1` [Example 97, (1R,2R)-2-((6-((6-morpholino-3H-imidazo[4,5-b]pyridin-3-yl)methyl)benzo[d]thiazol-2-yl)amino)cyclohexanol], the Kd was at most 0.1 µM on KIT, at most 0.05 µM at PDGFRβ and 0.005 to 0.02 µM at CSF1R. In addition, the IC50 in the experiment on M-NFS-60 cells was at most 0.05 µM. In experiment [1], the “Kinase specificity S(10)” value is “B (0.01<B≤0.02)”.
